Measured values published in US4602017A, “Substituted aromatic compounds” (priority 1979, dated 1986).
Like-named read-outs stand apart in the source and are kept apart here.

What was measured:
[1] = anticonvulsant activity, standard maximal electroshock test (MES); type: in vivo, mice; conditions: Mus musculus, po, read-out: ED50, MES
Method: The anticonvulsant activity of certain compounds of the present invention was determined by a standard maximal electroshock test, that described by L. A. Woodbury and V. D. Davenport, Arch. Int. Pharmacodyn.: 1952, 92, 97.

LD50 in mice, p.o. = conditions: mouse, in vivo, po, dose for which 50% of the animals survive 10 days after administration
Method: (§1) The LD50's (expressed in mg/kg, p.o.) of 3,5-diamino-6-(2,3-dichlorophenyl)-1,2,4-triazine and 3,5-diamino-6-(2,5-dichlorophenyl)-1,2,4,-triazine were determined in mice and rats. The LD50 described is the dose for which 50% of the animals survive 10 days after administration of the compound.

LD50 in rats, p.o. = conditions: rat, in vivo, po, dose for which 50% of the animals survive 10 days after administration
Method: as §1

Plasmodium berghei = Plasmodium berghei in mice; Rees et al, J. Med. Chem., 1972 15, 859; cited from earlier work
[2] = cited from earlier work; for toxicity: J. Med. Chem., 1972 15, 859
[3] = Rosenberg and Bottiroli, Proc. Soc. Exp. Biol. 1964; cited from earlier work
[4] = mice, p.o., maximal electroshock, Table 3
[5] = mice, p.o., maximal electroshock, Table 4 (naphthyl compounds)

Compound: Nc1nnc(-c2cc(Cl)cc(Cl)c2Cl)c(N)n1 [2,3,5-Cl3 NH2, 3,5-diamino-6-(2,3,5-trichlorophenyl)-1,2,4-triazine]
- ED50 [1, 4]: 0.65 mg/kg

Compound: CN(C)C=Nc1nc(N)nnc1-c1cccc(Cl)c1Cl.O=C(O)C(=O)O [2,3-Cl2 NCHNMe2, 3-amino-6-(2,3-dichlorophenyl)-5-dimethylaminomethyleneamino-1,2,4-triazine oxalate]
- ED50 [1, 4]: 5 mg/kg

Compound: Nc1nnc(-c2cccc(Cl)c2Cl)c(N)n1 [2,3-Cl2 NH2, 3,5-diamino-6-(2,3-dichlorophenyl)-1,2,4-triazine]
- ED50 [1]: 2.4 mg/kg
- LD50 at 240 h (LD50 in mice, p.o.): 250 mg/kg
- LD50 at 240 h (LD50 in rats, p.o.): > 640 mg/kg

Compound: CC(=O)Nc1nc(N)nnc1-c1cccc(Cl)c1Cl [2,3-Cl2 NHCOCH3, 5-acetamido-3-amino-6-(2,3-dichlorophenyl)-1,2,4-triazine]
- ED50 [1, 4]: 5 mg/kg

Compound: Nc1nnc(-c2ccc(Cl)cc2Cl)c(N)n1 [2,4-dichlorophenyl]
- antimalarial activity (Plasmodium berghei): only slight antimalarial activity

Compound: Nc1nnc(-c2cc(Cl)ccc2Cl)c(N)n1 [2,5-Cl2 NH2, 3,5-diamino-6-(2,5-dichlorophenyl)-1,2,4-triazine]
- ED50 [1, 4]: 3.3 mg/kg
- LD50 at 240 h (LD50 in mice, p.o.): 708 mg/kg
- LD50 at 240 h (LD50 in rats, p.o.): > 640 mg/kg

Compound: Nc1nnc(-c2ccccc2Br)c(N)n1 [2-Br NH2, 3,5-diamino-6-(2-bromophenyl)-1,2,4-triazine]
- ED50 [1, 4]: 8.5 mg/kg

Compound: Nc1nnc(-c2cc(Cl)ccc2Br)c(N)n1 [2-Br, 5-Cl NH2, 3,5-diamino-6-(2-5-chlorophenyl)-1,2,4-triazine]
- ED50 [1, 4]: 4.6 mg/kg

Compound: Nc1nnc(-c2ccccc2C(F)(F)F)c(N)n1 [2-CF3 NH2, 3,5-diamino-6-(2-trifluoromethylphenyl)-1,2,4-triazine]
- ED50 [1, 4]: 20 mg/kg

Compound: Nc1nnc(-c2ccc(Br)cc2Cl)c(N)n1 [2-Cl, 4-Br NH2, 3,5-diamino-6-(4-bromo-2-chlorophenyl)-1,2,4-triazine]
- ED50 [1, 4]: 12.8 mg/kg

Compound: Nc1nnc(-c2cc(Br)ccc2Cl)c(N)n1 [2-Cl, 5-Br NH2, 3,5-diamino-6-(5-bromo-2-chlorophenyl)-1,2,4-triazine]
- ED50 [1, 4]: 6 mg/kg

Compound: Nc1nnc(-c2c(F)cccc2Cl)c(N)n1 [2-Cl, 6-F NH2, 3,5-diamino-6-(2-chloro-6-fluorophenyl)-1,2,4-triazine]
- ED50 [1, 4]: 12.2 mg/kg

Compound: Nc1nnc(-c2ccccc2I)c(N)n1 [2-I NH2, 3,5-diamino-6-(2-iodophenyl)-1,2,4-triazine]
- ED50 [1, 4]: 11.8 mg/kg

Compound: Cc1ccccc1-c1nnc(N)nc1N [2-Me NH2, 3,5-diamino-6-(2-methylphenyl)-1,2,4-triazine]
- ED50 [1, 4]: 15 mg/kg

Compound: Cc1ccc2ccccc2c1-c1nnc(N)nc1N [2-Me, 3,5-diamino-6-(2-methyl-1-naphthyl)-1,2,4-triazine]
- ED50 [1, 5]: 16.5 mg/kg

Compound: Nc1nnc(-c2ccc(Cl)c(Cl)c2)c(N)n1 [3,4-dichlorophenyl]
- antimalarial activity (Plasmodium berghei): active against the malaria organism Plasmodium berghei in mice
- toxicity ([2]; Rees et al): toxic at curative doses
- therapeutic ratio ([2]; mouse, in vivo): low therapeutic ratio

Compound: Nc1nnc(-c2cc(Cl)cc3ccccc23)c(N)n1 [3-Cl, 3,5-diamino-6-(3-chloro-1-naphthyl)-1,2,4-triazine]
- ED50 [1, 5]: 6.5 mg/kg

Compound: Nc1nnc(-c2ccc(Cl)cc2)c(N)n1 [4-chlorophenyl]
- antimalarial activity (Plasmodium berghei): active against the malaria organism Plasmodium berghei in mice
- toxicity ([2]; Rees et al): toxic at curative doses
- therapeutic ratio ([2]; malaria, Rees et al): low therapeutic ratio

Compound: Nc1nnc(-c2ccc(C(F)(F)F)cc2)c(N)n1 [4-trifluoromethylphenyl]
- antimalarial activity (Plasmodium berghei): still being active against malaria
- toxicity ([2]; Rees et al): less toxic than the chlorophenyl compounds

Compound: Nc1nnc(-c2cccc3ccccc23)c(N)n1 [H, 3,5-diamino-6-(1-naphthyl)-1,2,4-triazine]
- ED50 [1, 5]: 2.9 mg/kg

Compound: CCN(CCO)CCCC(C)Nc1ccnc2cc(Cl)ccc12 (stereo not drawn) [hydroxychloroquine]
- anticonvulsant activity profile [3]: favourable activity profile
